Values of other authors in patent publication US6046331A, “Imidazolones and their use in treating benign prostatic hyperplasia and other disorders” (Synaptic Pharmaceutical Corporation, priority 1998, dated 2000).

How the values were obtained:
[1] = in vivo; cited from earlier work
[2] = cited from earlier work

Row | Compound | side effects [1] | relieving the symptoms of / treating BPH [2]
1 | Clc1cccc(Cl)c1N=C1NCCN1 [clonidine] | dry mouth and sedation | 
2 | CC(COc1ccccc1)N(CCCl)Cc1ccccc1 (stereo not shown) [phenoxybenzamine] | significant side effects such as dizziness and asthenia | useful in relieving the symptoms of BPH
3 | COc1cc2nc(N3CCN(C(=O)c4ccco4)CC3)nc(N)c2cc1OC [prazosin] | untoward side effects | useful for treating BPH
4 | COc1cc2nc(N3CCN(C(=O)C4CCCO4)CC3)nc(N)c2cc1OC (stereo not shown) [terazosin] | untoward side effects | useful for treating BPH
